# Measured values: article PMC5811606, “Characterization of ^111In-labeled Glucose-Dependent Insulinotropic Polypeptide as a Radiotracer for Neuroendocrine Tumors” (Scientific Reports, 2018)
# Read-outs that look alike come from different tables or passages of the source.
# Columns and labels:
# [1] = Biodistribution study, BHK-GIPR tumor mice; type: in vivo, BALB/c nude mice; conditions: female, mouse, iv, total radioactivity, BHK-GIPR tumor BALB/c nude mice, i.v., 0.2 µg, mean n=5; for tissue uptake at 1 h / tissue uptake at 4 h / tissue uptake at 24 h: BALB/c nude; for tissue uptake at 1 h / tissue to tissue ratio at 1 h: 1 h p.i.; for tissue uptake at 24 h / tissue to tissue ratio at 24 h: 24 h p.i.
# Experimental: (§1) All animal experiments were approved by the Animal Welfare Body of the Radboud University, Nijmegen, The Netherlands and carried out in accordance with their guidelines. Six to eight weeks old, female BALB/c nude mice and C3H mice were purchased from Janvier labs (Le Genest Saint Isle, France). For all in vivo experiments, 6-8 weeks old female BALB/c nude mice were injected subcutaneously in the right shoulder with 0.2 ml of a 2.5 × 10^7 cells/ml suspension of BHK-GIPR transfected cells or with 0.2 ml of a 2.5 × 10^7 cells/ml suspension of NES2Y cells mixed with matrigel (2:1) in the right shoulder. When the tumor reached a diameter of 2-5 mm, mice were randomly divided in groups.
# (§2) BALB/c nude mice bearing BHK-GIPR transfected tumors were injected intravenously with approximately 3 MBq (peptide dose 0.2 µg = 0.04 nmol) of [Lys^37(^111In-DTPA)]N-acetyl-GIP1-42 via the tail vein. At various time points after injection (1, 4 and 24 hours), mice were euthanized by CO2/O2 suffocation and blood, tumor and other relevant tissues were dissected, weighed and measured in a well type gamma counter. The percentage injected dose per gram (%ID/g) was calculated for each tissue. To determine whether the GIP1-42 uptake was GIPR mediated, 25 µg of unlabeled GIP1-42 was co-injected in a separate group (n = 5) and mice were euthanized four hours post-injection. BALB/c nude mice bearing NES2Y tumors (n = 5) were injected intravenously with approximately 3 MBq (peptide dose 0.2 µg = 0.04 nmol) of [Lys^37(^111In-DTPA)]N-acetyl-GIP1-42 via the tail vein. One hour after injection, mice were euthanized by CO2/O2 suffocation and blood, tumor and other relevant tissues were dissected, weighed and measured in a well type gamma counter. The percentage injected dose per gram (%ID/g) was determined for each tissue. To determine whether the GIP1-42 uptake was GIPR mediated, 25 µg of unlabeled GIP1-42 was co-injected in a separate group (n = 2) and mice were euthanized one hours post-injection.
# [2] = test system: subcutaneous BHK-GIPR tumors; assay: Biodistribution study, BHK-GIPR tumor mice; type: in vivo, BALB/c nude mice; conditions: biodistribution studies in BALB/c nude mice, i.v.
# Experimental: as §1, §2
# [3] = BHK-GIPR tumor, 0.2 ug, read-out: Tumor uptake
# [4] = blood, 0.2 ug, read-out: Blood uptake
# [5] = duodenum, 0.2 ug, read-out: Duodenum uptake
# [6] = heart, 0.2 ug, read-out: Heart uptake
# [7] = kidney, 0.2 ug, read-out: Kidney uptake
# [8] = liver, 0.2 ug, read-out: Liver uptake
# [9] = lung, 0.2 ug, read-out: Lung uptake
# [10] = muscle, 0.2 ug, read-out: Muscle uptake
# [11] = pancreas, 0.2 ug, read-out: Pancreas uptake
# [12] = spleen, 0.2 ug, read-out: Spleen uptake
# [13] = stomach, 0.2 ug, read-out: Stomach uptake
# [14] = tumor/blood, 0.2 ug, read-out: Tumor/Blood
# [15] = tumor/heart, 0.2 ug, read-out: Tumor/Heart
# [16] = tumor/kidney, 0.2 ug, read-out: Tumor/Kidney
# [17] = tumor/muscle, 0.2 ug, read-out: Tumor/Muscle
smiles,measurement,setting,value
"CC[C@H](C)[C@H](NC(=O)[C@H](CO)NC(=O)[C@H](Cc1ccc(O)cc1)NC(=O)[C@H](CC(=O)O)NC(=O)[C@H](CO)NC(=O)[C@@H](NC(=O)[C@H](Cc1ccccc1)NC(=O)[C@@H](NC(=O)CNC(=O)[C@H](CCC(=O)O)NC(=O)[C@H](C)NC(=O)[C@H](Cc1ccc(O)cc1)NC(C)=O)[C@@H](C)O)[C@@H](C)CC)C(=O)N[C@@H](C)C(=O)N[C@@H](CCSC)C(=O)N[C@@H](CC(=O)O)C(=O)N[C@@H](CCCCN)C(=O)N[C@H](C(=O)N[C@@H](Cc1c[nH]cn1)C(=O)N[C@@H](CCC(N)=O)C(=O)N[C@@H](CCC(N)=O)C(=O)N[C@@H](CC(=O)O)C(=O)N[C@@H](Cc1ccccc1)C(=O)N[C@H](C(=O)N[C@@H](CC(N)=O)C(=O)N[C@@H](Cc1c[nH]c2ccccc12)C(=O)N[C@@H](CC(C)C)C(=O)N[C@@H](CC(C)C)C(=O)N[C@@H](C)C(=O)N[C@@H](CCC(N)=O)C(=O)N[C@@H](CCCCN)C(=O)NCC(=O)N[C@@H](CCCCN)C(=O)N[C@@H](CCCCN)C(=O)N[C@@H](CC(N)=O)C(=O)N[C@@H](CC(=O)O)C(=O)N[C@@H](Cc1c[nH]c2ccccc12)C(=O)N[C@@H](CCCCNC(=O)CN(CCN(CCN(CC(=O)O)CC(=O)O)CC(=O)O)CC(=O)O)C(=O)N[C@@H](Cc1c[nH]cn1)C(=O)N[C@@H](CC(N)=O)C(=O)N[C@H](C(=O)N[C@H](C(=O)N[C@@H](CCC(N)=O)C(=O)O)[C@@H](C)O)[C@@H](C)CC)C(C)C)[C@@H](C)CC [[Lys^37(^111In-DTPA)]N-acetyl-GIP1-42, metal not drawn]",tissue uptake at 1 h,[1]; [3],4.69 %ID/g
same,tissue uptake at 4 h,"[1]; BHK-GIPR tumor, 0.2 ug, 4 h p.i., read-out: Tumor uptake",3.27 %ID/g
same,tissue uptake at 24 h,[1]; [3],2 ± 0.2 %ID/g
same,tissue uptake at 4 h,"[1]; BHK-GIPR tumor, 4 h p.i. + xs (25 µg unlabeled GIP1-42), read-out: Tumor uptake",0.8 ± 0.2 %ID/g
same,tissue uptake at 1 h,[1]; [4],0.248 %ID/g
same,tissue uptake at 4 h,"[1]; blood, 0.2 ug, 4 h p.i., read-out: Blood uptake",0.045 %ID/g
same,tissue uptake at 24 h,[1]; [4],0.017 %ID/g
same,tissue uptake at 4 h,"[1]; blood, 4 h p.i. + xs (25 µg unlabeled GIP1-42), read-out: Blood uptake",0.031 %ID/g
same,tissue uptake at 1 h,[1]; [5],0.561 %ID/g
same,tissue uptake at 4 h,"[1]; duodenum, 0.2 ug, 4 h p.i., read-out: Duodenum uptake",0.448 %ID/g
same,tissue uptake at 24 h,[1]; [5],0.378 %ID/g
same,tissue uptake at 4 h,"[1]; duodenum, 4 h p.i. + xs (25 µg unlabeled GIP1-42), read-out: Duodenum uptake",0.392 %ID/g
same,tissue uptake at 1 h,[1]; [6],0.2 %ID/g
same,tissue uptake at 4 h,"[1]; heart, 0.2 ug, 4 h p.i., read-out: Heart uptake",0.116 %ID/g
same,tissue uptake at 24 h,[1]; [6],0.081 %ID/g
same,tissue uptake at 4 h,"[1]; heart, 4 h p.i. + xs (25 µg unlabeled GIP1-42), read-out: Heart uptake",0.096 %ID/g
same,tissue uptake at 1 h,[1]; [7],211 %ID/g
same,tissue uptake at 4 h,"[1]; kidney, 0.2 ug, 4 h p.i., read-out: Kidney uptake",228 %ID/g
same,tissue uptake at 24 h,[1]; [7],173 %ID/g
same,tissue uptake at 4 h,"[1]; kidney, 4 h p.i. + xs (25 µg unlabeled GIP1-42), read-out: Kidney uptake",227 %ID/g
same,tissue uptake at 1 h,[1]; [8],1.1 %ID/g
same,tissue uptake at 4 h,"[1]; liver, 0.2 ug, 4 h p.i., read-out: Liver uptake",1.16 %ID/g
same,tissue uptake at 24 h,[1]; [8],0.695 %ID/g
same,tissue uptake at 4 h,"[1]; liver, 4 h p.i. + xs (25 µg unlabeled GIP1-42), read-out: Liver uptake",1.09 %ID/g
same,tissue uptake at 1 h,[1]; [9],0.545 %ID/g
same,tissue uptake at 4 h,"[1]; lung, 0.2 ug, 4 h p.i., read-out: Lung uptake",0.332 %ID/g
same,tissue uptake at 24 h,[1]; [9],0.184 %ID/g
same,tissue uptake at 4 h,"[1]; lung, 4 h p.i. + xs (25 µg unlabeled GIP1-42), read-out: Lung uptake",0.331 %ID/g
same,tissue uptake at 1 h,[1]; [10],0.135 %ID/g
same,tissue uptake at 4 h,"[1]; muscle, 0.2 ug, 4 h p.i., read-out: Muscle uptake",0.082 %ID/g
same,tissue uptake at 24 h,[1]; [10],0.058 %ID/g
same,tissue uptake at 4 h,"[1]; muscle, 4 h p.i. + xs (25 µg unlabeled GIP1-42), read-out: Muscle uptake",0.068 %ID/g
same,tissue uptake at 1 h,[1]; [11],0.296 %ID/g
same,tissue uptake at 4 h,"[1]; pancreas, 0.2 ug, 4 h p.i., read-out: Pancreas uptake",0.193 %ID/g
same,tissue uptake at 24 h,[1]; [11],0.137 %ID/g
same,tissue uptake at 4 h,"[1]; pancreas, 4 h p.i. + xs (25 µg unlabeled GIP1-42), read-out: Pancreas uptake",0.147 %ID/g
same,tissue uptake at 1 h,[1]; [12],0.603 %ID/g
same,tissue uptake at 4 h,"[1]; spleen, 0.2 ug, 4 h p.i., read-out: Spleen uptake",0.528 %ID/g
same,tissue uptake at 24 h,[1]; [12],0.493 %ID/g
same,tissue uptake at 4 h,"[1]; spleen, 4 h p.i. + xs (25 µg unlabeled GIP1-42), read-out: Spleen uptake",0.519 %ID/g
same,tissue uptake at 1 h,[1]; [13],0.502 %ID/g
same,tissue uptake at 4 h,"[1]; stomach, 0.2 ug, 4 h p.i., read-out: Stomach uptake",0.362 %ID/g
same,tissue uptake at 24 h,[1]; [13],0.258 %ID/g
same,tissue uptake at 4 h,"[1]; stomach, 4 h p.i. + xs (25 µg unlabeled GIP1-42), read-out: Stomach uptake",0.268 %ID/g
same,tissue to tissue ratio at 24 h,"[1]; tumor and lung, 0.2 ug, read-out: Tumor/Lung",11.3
same,tissue to tissue ratio at 1 h,[1]; [14],21.8
same,tissue to tissue ratio at 4 h,"[1]; tumor/blood, 0.2 ug, 4 h p.i., read-out: Tumor/Blood",77.6
same,tissue to tissue ratio at 24 h,[1]; [14],130
same,tissue to tissue ratio at 4 h,"[1]; tumor/blood, 4 h p.i. + xs (25 µg unlabeled GIP1-42), read-out: Tumor/Blood",29.8
same,tissue to tissue ratio at 1 h,[1]; [15],23.6
same,tissue to tissue ratio at 4 h,"[1]; tumor/heart, 0.2 ug, 4 h p.i., read-out: Tumor/Heart",29
same,tissue to tissue ratio at 24 h,[1]; [15],25.5
same,tissue to tissue ratio at 4 h,"[1]; tumor/heart, 4 h p.i. + xs (25 µg unlabeled GIP1-42), read-out: Tumor/Heart",8.89
same,tissue to tissue ratio at 1 h,[1]; [16],0.023
same,tissue to tissue ratio at 4 h,"[1]; tumor/kidney, 0.2 ug, 4 h p.i., read-out: Tumor/Kidney",0.014
same,tissue to tissue ratio at 24 h,[1]; [16],0.011
same,tissue to tissue ratio at 4 h,"[1]; tumor/kidney, 4 h p.i. + xs (25 µg unlabeled GIP1-42), read-out: Tumor/Kidney",0.004
same,tissue to tissue ratio at 1 h,"[1]; tumor/lung, 0.2 ug, read-out: Tumor/Lung",8.64
same,tissue to tissue ratio at 4 h,"[1]; tumor/lung, 0.2 ug, 4 h p.i., read-out: Tumor/Lung",10.1
same,tissue to tissue ratio at 4 h,"[1]; tumor/lung, 4 h p.i. + xs (25 µg unlabeled GIP1-42), read-out: Tumor/Lung",2.68
same,tissue to tissue ratio at 1 h,[1]; [17],35
same,tissue to tissue ratio at 4 h,"[1]; tumor/muscle, 0.2 ug, 4 h p.i., read-out: Tumor/Muscle",40.4
same,tissue to tissue ratio at 24 h,[1]; [17],36.4
same,tissue to tissue ratio at 4 h,"[1]; tumor/muscle, 4 h p.i. + xs (25 µg unlabeled GIP1-42), read-out: Tumor/Muscle",12.4
same,blood clearance,[2],cleared from the blood very rapidly
